From US5518735A, “Meta-substituted phenylalanine derivatives” (priority 1990, dated 1996)
Where a name gives a salt, the structure may show the parent alone.

How the values were obtained:
glandular kallikrein = glandular kallikrein (Sus scrofa, UniProt P00752); assay: Inhibition of glandular kallikrein (Ki); format: biochemical; settings: Table 26; read-out: Ki, Gland. Kallikrein
thrombin = thrombin (Bos taurus, UniProt P00735); assay: Inhibition of thrombin (dissociation constant Ki); format: biochemical
tPA = tPA (Homo sapiens, UniProt P00750); assay: Inhibition of tPA (Ki); format: biochemical; settings: Table 26
tPA, sequence (P00750 36-562): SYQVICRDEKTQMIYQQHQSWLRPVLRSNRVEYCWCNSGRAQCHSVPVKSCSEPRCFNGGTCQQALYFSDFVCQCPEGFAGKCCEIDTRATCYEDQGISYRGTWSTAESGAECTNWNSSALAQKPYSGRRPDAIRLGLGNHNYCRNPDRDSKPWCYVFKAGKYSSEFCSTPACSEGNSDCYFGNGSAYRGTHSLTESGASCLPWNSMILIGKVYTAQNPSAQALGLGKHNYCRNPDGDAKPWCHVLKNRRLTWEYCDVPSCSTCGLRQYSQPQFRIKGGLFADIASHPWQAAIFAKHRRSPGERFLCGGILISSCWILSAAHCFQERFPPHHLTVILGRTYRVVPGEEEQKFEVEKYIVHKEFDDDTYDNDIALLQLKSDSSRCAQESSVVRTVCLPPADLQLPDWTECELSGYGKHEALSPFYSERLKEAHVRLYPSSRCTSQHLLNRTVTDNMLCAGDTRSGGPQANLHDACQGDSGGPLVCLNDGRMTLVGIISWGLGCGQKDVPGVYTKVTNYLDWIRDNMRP

plasma kallikrein = target: T1, plasma kallikrein (Homo sapiens, UniProt P03952); assay: Inhibition of plasma kallikrein (Ki); format: biochemical; settings: Table 26
T1 construct: glandular kallikrein, factor XIIa and plasma kallikrein
T1 sequence (P03952 391-638 limits assumed, species assumed): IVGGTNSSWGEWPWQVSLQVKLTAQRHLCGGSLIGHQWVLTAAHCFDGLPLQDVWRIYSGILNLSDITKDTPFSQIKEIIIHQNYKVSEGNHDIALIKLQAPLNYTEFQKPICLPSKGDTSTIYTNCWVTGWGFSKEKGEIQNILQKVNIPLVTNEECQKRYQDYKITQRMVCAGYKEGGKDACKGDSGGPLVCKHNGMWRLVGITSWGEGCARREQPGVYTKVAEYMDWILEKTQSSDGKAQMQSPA
T1 sequence (P03952 20-390 partner limits assumed, species assumed): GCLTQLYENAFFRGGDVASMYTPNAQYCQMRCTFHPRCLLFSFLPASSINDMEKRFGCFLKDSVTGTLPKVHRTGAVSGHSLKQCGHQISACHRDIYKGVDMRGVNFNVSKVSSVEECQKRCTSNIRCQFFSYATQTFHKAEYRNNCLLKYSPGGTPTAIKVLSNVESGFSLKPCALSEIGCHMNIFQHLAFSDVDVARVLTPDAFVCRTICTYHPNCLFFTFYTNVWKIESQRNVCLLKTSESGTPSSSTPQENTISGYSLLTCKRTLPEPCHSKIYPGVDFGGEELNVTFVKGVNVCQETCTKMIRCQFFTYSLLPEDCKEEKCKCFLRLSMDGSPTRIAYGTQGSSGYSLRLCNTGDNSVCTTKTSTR

factor Xa = factor Xa (Bos taurus, UniProt P00743); assay: Inhibition of factor Xa (dissociation constant Ki); format: biochemical; settings: Tables 19-25; read-out: Ki, Factor Xa
factor Xa, sequence (P00743 234-492 limits assumed): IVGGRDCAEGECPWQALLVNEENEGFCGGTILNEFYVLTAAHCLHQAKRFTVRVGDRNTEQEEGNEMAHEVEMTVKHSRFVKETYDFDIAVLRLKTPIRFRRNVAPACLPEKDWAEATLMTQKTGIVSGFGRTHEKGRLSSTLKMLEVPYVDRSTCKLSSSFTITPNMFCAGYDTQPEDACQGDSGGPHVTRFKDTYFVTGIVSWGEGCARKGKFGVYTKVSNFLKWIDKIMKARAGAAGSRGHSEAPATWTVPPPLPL
factor Xa, sequence (P00743 41-180 partner limits assumed): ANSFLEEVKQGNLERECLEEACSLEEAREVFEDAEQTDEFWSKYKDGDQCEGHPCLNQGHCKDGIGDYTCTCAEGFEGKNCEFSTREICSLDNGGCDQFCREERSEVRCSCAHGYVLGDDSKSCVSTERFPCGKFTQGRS

factor XIIa = target: T2, factor XIIa (Homo sapiens, UniProt P00748); assay: Inhibition of factor XIIa (Ki); format: biochemical; settings: Table 26
T2 construct: glandular kallikrein, factor XIIa and plasma kallikrein
T2 sequence (P00748 373-615 limits assumed): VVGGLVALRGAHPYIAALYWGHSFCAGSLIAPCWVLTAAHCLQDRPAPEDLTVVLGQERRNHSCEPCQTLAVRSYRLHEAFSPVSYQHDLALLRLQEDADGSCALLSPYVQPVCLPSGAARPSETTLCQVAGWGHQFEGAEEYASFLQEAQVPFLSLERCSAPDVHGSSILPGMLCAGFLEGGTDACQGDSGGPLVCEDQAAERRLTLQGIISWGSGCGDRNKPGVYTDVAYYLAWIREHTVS

plasmin = target: T3, plasmin (Homo sapiens, UniProt P00747); assay: Inhibition of plasmin (Ki); format: biochemical; settings: Table 26
T3 construct: trypsin and the related enzymes thrombin, plasmin, factor Xa, tPA
T3 sequence (P00747 581-810 limits assumed): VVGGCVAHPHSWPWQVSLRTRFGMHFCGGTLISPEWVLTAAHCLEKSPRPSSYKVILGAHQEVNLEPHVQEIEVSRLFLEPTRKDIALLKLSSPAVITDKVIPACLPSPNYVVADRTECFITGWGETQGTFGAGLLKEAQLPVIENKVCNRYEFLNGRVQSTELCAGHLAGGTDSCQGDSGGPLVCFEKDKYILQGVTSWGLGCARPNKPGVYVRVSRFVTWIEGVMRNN
T3 sequence (P00747 97-580 partner limits assumed): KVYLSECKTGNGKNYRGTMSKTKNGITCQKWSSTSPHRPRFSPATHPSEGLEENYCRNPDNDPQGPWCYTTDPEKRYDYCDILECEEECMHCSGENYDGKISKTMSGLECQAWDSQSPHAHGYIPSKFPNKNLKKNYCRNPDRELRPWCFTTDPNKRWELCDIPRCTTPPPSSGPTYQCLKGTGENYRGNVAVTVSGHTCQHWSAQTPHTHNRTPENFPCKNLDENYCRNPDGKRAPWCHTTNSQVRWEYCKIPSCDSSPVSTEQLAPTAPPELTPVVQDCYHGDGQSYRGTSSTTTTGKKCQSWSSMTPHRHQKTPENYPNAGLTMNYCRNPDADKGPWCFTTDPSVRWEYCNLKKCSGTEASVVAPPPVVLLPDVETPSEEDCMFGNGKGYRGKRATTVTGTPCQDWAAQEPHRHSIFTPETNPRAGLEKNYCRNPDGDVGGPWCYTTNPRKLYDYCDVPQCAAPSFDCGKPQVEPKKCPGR

trypsin = target: T4, trypsin (Bos taurus, UniProt P00760); assay: Inhibition of trypsin (Ki); format: biochemical; settings: Table 26
T4 sequence (P00760 24-246): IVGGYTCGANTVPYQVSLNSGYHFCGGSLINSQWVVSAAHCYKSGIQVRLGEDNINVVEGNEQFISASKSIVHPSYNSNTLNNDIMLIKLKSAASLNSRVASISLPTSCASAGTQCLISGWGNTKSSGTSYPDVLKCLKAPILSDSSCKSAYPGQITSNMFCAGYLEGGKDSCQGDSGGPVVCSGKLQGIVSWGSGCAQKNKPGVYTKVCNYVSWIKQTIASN

[1] = Plasma concentration in rats after subcutaneous administration (HPLC); settings: rat
[2] = Plasma concentration in rats after oral administration (HPLC); settings: rat, plasma, po, 100 mg/kg
Procedure: For the pharmacokinetic characterization, the plasma concentration of selected derivatives was determined in rats after intravenous (i.v.), subcutaneous (s.c.) and peroral (p.o.) application according to the following three-step procedure:
1. A physiological NaCl solution of the substance to be tested was submitted to high pressure liquid chromatography (HPLC) in order to determine its characteristic substance-specific retention time with the chosen test conditions.
2. The substance to be tested was diluted in vitro in rat plasma. This solution was also submitted to HPLC to see whether the characteristic peak of the substance once again appeared at the substance-specific retention time.
3. […] Blood samples were taken at time intervals of 15 minutes, from which plasma samples were prepared by centrifugation; those samples were also submitted to HPLC to see whether the characteristic peak of the substance appeared again at the substance-specific retention time.

in vivo = settings: mouse
[3] = Plasma concentration in rats after intravenous administration (HPLC); settings: for Concentration in plasma: i.v. 1 mg/kg
human plasma = settings: in vitro, FIG. 4
Procedure: Various coagulation tests were used in vitro to determine the efficacy of the inhibitors towards the thrombin-induced coagulation of its natural substrate fibrinogen. For that purpose, the thrombin time (TT), the activated partial thromboplastin time (aPTT) and the prothrombin time (PT, Quick value) were determined in human plasma.

glandular kallikrein, sequence (P00752 8-246): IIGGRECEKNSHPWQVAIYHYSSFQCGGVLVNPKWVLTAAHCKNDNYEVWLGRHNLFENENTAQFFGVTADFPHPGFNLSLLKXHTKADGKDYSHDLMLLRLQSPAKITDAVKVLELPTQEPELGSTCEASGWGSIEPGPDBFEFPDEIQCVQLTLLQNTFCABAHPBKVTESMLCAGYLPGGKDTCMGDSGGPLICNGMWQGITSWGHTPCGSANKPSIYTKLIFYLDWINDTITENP

Compound	Ki (glandular kallikrein)	Ki (thrombin)	Ki (tPA)	Ki (plasma kallikrein)	Ki (factor Xa)	Ki (factor XIIa)	Ki (plasmin)	Ki (trypsin)	concentration at 0.5 h ([1]; plasma, sc, 5 mg/kg)	concentration at 0.75 h ([1]; plasma, sc, 5 mg/kg)	concentration at 1 h ([1]; plasma, sc, 5 mg/kg)	concentration at 1.5 h ([1]; plasma, sc, 5 mg/kg)	concentration at 2 h ([1]; plasma, sc, 5 mg/kg)	concentration at 3 h ([1]; plasma, sc, 5 mg/kg)	concentration at 4 h ([1]; plasma, sc, 5 mg/kg)	concentration at 5 h ([1]; plasma, sc, 5 mg/kg)	concentration at 0.25 h [2]	concentration at 0.5 h [2]	concentration at 0.75 h [2]	concentration at 1 h [2]	also measured
N=C(N)Nc1cccc(CC(NS(=O)(=O)c2ccc3ccccc3c2)C(=O)N2CCCCC2)c1 (racemic) [Compound 207, N-α-(2-Naphthylsulfonyl)-3-quanidino-(D,L)-phenylalanine-piperidide hydrochloride]	> 1000 µM	0.4 µM	> 1000 µM	> 1000 µM	107 µM	> 1000 µM	17 µM	4.1 µM	–	–	–	–	–	–	–	–	–	–	–	–	–
CC1CCN(C(=O)C(Cc2cccc(N)c2)NS(=O)(=O)c2ccc3ccccc3c2)CC1 (racemic) [Compound 203]	> 1000 µM	8.9 µM	> 1000 µM	> 1000 µM	210 µM	270 µM	> 1000 µM	> 1000 µM	–	–	–	–	–	–	–	–	–	–	–	–	–
N=C(N)c1cccc(CC(NS(=O)(=O)c2ccc3ccccc3c2)C(=O)N2Cc3ccccc3CC2C(=O)O)c1 (racemic) [Compound 134, N-α-(2-Naphtylsulfonyl)-3-amidino-(D,L)-phenylalanyl-1,2,3,4-tetrahydroisoquinoline-3-carboxylic acid]	390 µM	0.018 µM	> 1000 µM	1.5 µM	42 µM	> 1000 µM	0.67 µM	–	0.035 µg/mL	0.072 µg/mL	0.079 µg/mL	0.092 µg/mL	0.145 µg/mL	0.285 µg/mL	0.268 µg/mL	0.248 µg/mL	0.188 µg/mL	0.26 µg/mL	0.297 µg/mL	0.26 µg/mL	Concentration in plasma ([1]; s.c. 5 mg/kg, 15 min): 0 µg/mL; concentration at 2 h [2]: 0.234 µg/mL; concentration at 3 h [2]: 0.236 µg/mL; concentration at 4 h [2]: 0.21 µg/mL; concentration at 5 h [2]: 0.157 µg/mL; concentration at 6 h [2]: 0.086 µg/mL; LD50 at 168 h (in vivo; iv): 29 mg/kg; LD50 at 168 h (in vivo; po): > 3000 mg/kg; Concentration in plasma ([3]; rat, 90 min): 0 µg/mL; concentration at 2 min ([3]; rat, plasma, iv, 1 mg/kg): 4.44 µg/mL; concentration at 5 min ([3]; rat, plasma, iv, 1 mg/kg): 1.68 µg/mL; concentration at 10 min ([3]; rat, plasma, iv, 1 mg/kg): 0.775 µg/mL; concentration at 0.25 h ([3]; rat, plasma, iv, 1 mg/kg): 0.621 µg/mL; concentration at 0.5 h ([3]; rat, plasma, iv, 1 mg/kg): 0.079 µg/mL; concentration at 0.75 h ([3]; rat, plasma, iv, 1 mg/kg): 0.078 µg/mL; concentration at 1 h ([3]; rat, plasma, iv, 1 mg/kg): 0.01 µg/mL
CC1CCN(C(=O)C(Cc2cccc(C(=N)N)c2)NS(=O)(=O)c2ccc3ccccc3c2)CC1 (racemic) [Compound 34]	–	–	460 µM	–	–	> 1000 µM	4 µM	–	–	–	–	–	–	–	–	–	–	–	–	–	influence on prothrombin time (PT) (human plasma): obtained by higher inhibitor concentrations
CC1CCN(C(=O)C(Cc2cccc(CN)c2)NS(=O)(=O)c2ccc3ccccc3c2)CC1 (racemic) [Compound 182, N-α-(2-Naphthylsulfonyl)-3-aminomethyl-(D,L)-phenylalanyl-4-methylpiperidide]	76 µM	1.9 µM	> 1000 µM	> 1000 µM	500 µM	< 1000 µM	27 µM	3.4 µM	–	–	–	–	–	–	–	–	–	–	–	–	–
N=C(NO)c1cccc(CC(NS(=O)(=O)c2ccc3ccccc3c2)C(=O)N2Cc3ccccc3CC2C(=O)O)c1 (racemic) [Compound 190, N-α-(2-Naphthylsulfonyl)-3-oxamidino-(D,L)-phenylalanyl-1,2,3,4-tetrahydroisoquinoline-3-carboxylic acid hydroiodide]	> 1000 µM	2.4 µM	> 1000 µM	> 1000 µM	130 µM	460 µM	120 µM	27 µM	0.33 µg/mL	0.374 µg/mL	0.492 µg/mL	0.354 µg/mL	0.27 µg/mL	0.165 µg/mL	0.152 µg/mL	0.138 µg/mL	0.481 µg/mL	1.11 µg/mL	0.796 µg/mL	0.574 µg/mL	concentration at 0.25 h ([1]; plasma, sc, 5 mg/kg): 0.34 µg/mL; concentration at 6 h ([1]; plasma, sc, 5 mg/kg): 0.126 µg/mL; concentration at 2 h [2]: 0.542 µg/mL; concentration at 3 h [2]: 0.217 µg/mL; concentration at 4 h [2]: 0.113 µg/mL; concentration at 5 h [2]: 0.05 µg/mL; LD50 at 168 h (in vivo; iv): > 150 mg/kg; LD50 at 168 h (in vivo; po): > 3000 mg/kg; pharmacokinetic properties ([3]; in words, compared with NAPAP): improved pharmacokinetic properties; Concentration in plasma ([3]; rat, 60 min): 0 µg/mL; concentration at 2 min ([3]; rat, plasma, iv, 1 mg/kg): 3.26 µg/mL; concentration at 5 min ([3]; rat, plasma, iv, 1 mg/kg): 1.61 µg/mL; concentration at 10 min ([3]; rat, plasma, iv, 1 mg/kg): 0.806 µg/mL; concentration at 0.25 h ([3]; rat, plasma, iv, 1 mg/kg): 0.496 µg/mL; concentration at 0.5 h ([3]; rat, plasma, iv, 1 mg/kg): 0.477 µg/mL; concentration at 0.75 h ([3]; rat, plasma, iv, 1 mg/kg): 0.134 µg/mL
